Ki data for 22 compounds are collected here from patent US6610689B2, “HIV protease inhibitors based on amino acid derivatives” (priority 2001, dated 2003).

The structures appear in SMILES notation. Structures can show the parent of a compound that is named as a salt.

The first assay has as its target T1, HIV protease (Human immunodeficiency virus type 1 group M subtype B, UniProt P04585).
T1 construct: A third viral enzyme known as protease then cleaves the polyproteins
The experiment in a line: Enzymatic Assay for Determining the Inhibition Constant (Ki) of Synthetic Compounds Targeting the HIV Protease (fluorometric FRET assay). Format: biochemical.
Conditions: not given
The gist of the method: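 Ki obtained via the Henderson equation from enzyme velocities with and without compound, accounting for substrate concentration and Km. Activity followed by FRET fluorescence from cleavage of a substrate flanked by EDANS donor and DABCYL acceptor.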
As to `Cc1ccc(S(=O)(=O)N(CC(C)C)[C@H](CO)CCCCNC(=O)[C@H](Cc2ccccc2)NC(=O)N2CCOCC2)cc1` [Example 120, (2S,2′S) 2-N-Isobutyl-2-N-(4-methylbenzenesulfonyl)-6-N-[N′α-(4-morpholinecarbonyl)-S-phenylalanyl]-2,6-diaminohexanol], the Ki (in general, a dissociation constant, usually derived from enzyme kinetics or from competition with a known ligand) is 2.4 nM. The compound `Cc1ccc(S(=O)(=O)N(CC(C)C)[C@@H](CCCCNC(=O)[C@H](Cc2ccccc2)NC(=O)N2CCOCC2)C(=O)O)cc1` [Example 51, Nα-Isobutyl-Nα-(4-methylbenzenesulfonyl)-Nε-[N′α-(4-morpholinecarbonyl)-L-phenylalanyl]-L-lysine] returned a Ki of 0.9 nM. Same read-out and setting: for `Cc1ccc(S(=O)(=O)N[C@@H](Cc2ccccc2)C(=O)NCCC[C@@H](C(=O)O)N(CC(C)C)S(=O)(=O)c2ccc(C)cc2)cc1` [Example 154, Nα-Isobutyl-Nα-(4-methylbenzenesulfonyl)-Nε-[N′α-(4-methylbenzenesulfonyl)-L-phenylalanyl]-L-ornithine] the value was greater than 300 nM.

For `Cc1ccc(S(=O)(=O)N(CC(C)C)[C@@H](CCCCNC(=O)[C@H](Cc2ccccc2)NC(=O)C(C)(C)C)C(=O)O)cc1` [Example 52, Nα-Isobutyl-Nα-(4-methylbenzenesulfonyl)-Nε-(N′α-pivaloyl-L-phenylalanyl)-L-lysine], the Ki amounted to 0.545 nM. In turn, `CC(=O)Nc1ccc(S(=O)(=O)N[C@@H](Cc2ccccc2)C(=O)NCCCC[C@@H](C(=O)O)N(CC(C)C)S(=O)(=O)c2ccc(N)cc2)cc1` [Example 56, Nα-(4-Aminobenzenesulfonyl)-Nα-isobutyl-Nε-[N′α-(4-acetylaminobenzenesulfonyl)-L-phenylalanyl]-L-lysine] yielded a Ki of 1.9 nM. `Cc1ccc(S(=O)(=O)N(CC(C)C)[C@@H](CCCCNC(=O)[C@@H]2Cc3ccccc3CN2S(=O)(=O)c2ccc(C)cc2)C(=O)O)cc1` [Example 65] gave a Ki of 24 nM. `Cc1ccc(S(=O)(=O)N[C@@H](Cc2ccccc2)C(=O)NCCCC[C@H](C(=O)O)N(CC(C)C)S(=O)(=O)c2ccc(C)cc2)cc1` [Example 67, Nα-Isobutyl-Nα-(4-methylbenzenesulfonyl)-Nε-[N′α-(4-methylbenzenesulfonyl)-L-phenylalanyl]-D-lysine] gave a Ki greater than 300 nM. `Cc1ccc(S(=O)(=O)N[C@H](Cc2ccccc2)C(=O)NCCCC[C@H](C(=O)O)N(CC(C)C)S(=O)(=O)c2ccc(C)cc2)cc1` [Example 66, Nα-Isobutyl-Nα-(4-methylbenzenesulfonyl)-Nε-[N′α-(4-methylbenzenesulfonyl)-D-phenylalanyl]-D-lysine] showed a Ki greater than 300 nM. Same read-out and setting: with `Cc1ccc(S(=O)(=O)N(CC(C)C)[C@H](CO)CCCCNC(=O)[C@H](Cc2cccnc2)NC(=O)OC(C)(C)C)cc1` [Example 135, (2S,2′S) 2-N-Isobutyl-2-N-(4-methylbenzenesulfonyl)-6-N-(N′α-tert-butoxycarbonyl-S-3-pyridylalanyl)-2,6-diaminohexanol] the figure was 144 nM; with `Cc1ccc(S(=O)(=O)N(CC(C)C)[C@@H](CCCCNC(=O)[C@@H](N)[C@@H](C)OCc2ccccc2)C(=O)O)cc1` [Example 91, Nα-Isobutyl-Nα-(4-methylbenzenesulfonyl)-Nε-(O-benzyl-L-threonyl)-L-lysine], 10 nM. Still for that read-out and setting: with `CSCC[C@H](N)C(=O)NCCCC[C@@H](C(=O)O)N(CC(C)C)S(=O)(=O)c1ccc(C)cc1` [Example 89, Nα-Isobutyl-Nα-(4-methylbenzenesulfonyl)-Nε-(L-methionyl)-L-lysine] the figure was 33 nM. Take `COc1ccc(S(=O)(=O)N(CC2CCCC2)[C@@H](CCCCNC(=O)[C@H](Cc2c[nH]c3ccccc23)NC(=O)OC(C)(C)C)C(=O)O)cc1` [Example 151, Nα-Cyclopentylnethyl-Nα-(4-methoxybenzenesulfonyl)-Nε-(N′α-tert-butoxycarbonyl-L-tryptophanyl)-L-lysine]: the Ki came to 5.3 nM. On to `Cc1ccc(S(=O)(=O)N(CC(C)C)[C@H](CO)CCCCNC(=O)[C@H](Cc2c[nH]c3ccccc23)NS(=O)(=O)c2ccc([N+](=O)[O-])cc2)cc1` [Example 130, (2S,2′S) 2-N-Isobutyl-2-N-(4-methylbenzenesulfonyl)-6-N-[N′α-(4-nitrobenzenesulfonyl)-S-tryptophanyl]-2,6-diaminohexanol], for which the affinity, expressed as Ki, was 27 nM. Compound `CC(=O)Nc1ccc(S(=O)(=O)N[C@@H](Cc2ccccc2)C(=O)NCCCC[C@@H](C(=O)O)N(CC(C)C)S(=O)(=O)c2ccc([N+](=O)[O-])cc2)cc1` [Example 28, Nα-Isobutyl-Nα-(4-nitrobenzenesulfonyl)-Nε-[N′α-(4-acetamidobenzenesulfonyl)-L-phenylalanyl]-L-lysine] yielded a Ki of 9.3 nM. On to `COc1ccc(S(=O)(=O)N[C@@H](Cc2ccccc2)C(=O)NCCCC[C@@H](CO)N(CC(C)C)S(=O)(=O)c2ccc(C)cc2)cc1` [Example 126, (2S,2′S) 2-N-Isobutyl-2-N-(4-methylbenzenesulfonyl)-6-N-[N′α-(4-methoxybenzenesulfonyl)-S-phenylalanyl]-2,6-diaminohexanol], for which the Ki was determined as 19 nM. Still for that read-out and setting: with `Cc1ccc(S(=O)(=O)N(CC(C)C)[C@@H](CCCCNC(=O)[C@H](CC(N)=O)NC(=O)OCc2ccccc2)C(=O)O)cc1` [Example 48, Nα-Isobutyl-Nα-(4-Methylbenzenesulfonyl)-Nε-(N′α-benzyloxycarbonyl-L-asparagyl)-L-lysine] the figure was 114 nM.

Staying with this assay, now noted: Table 1, compounds of formula I; read-out: Ki (anti-protease activity).
On to `COc1ccc(S(=O)(=O)N(CC(C)C)[C@H](CO)CCCCNC(=O)[C@@H](N)Cc2c[nH]c3ccccc23)cc1` [Example 146, (2S,2′S) 2-N-Isobutyl-2-N-(4-methoxybenzenesullfonyl)-6-N-(S-tryptophanyl)-2,6-diaminohexanol Trifluoroacetic Acid Salt], for which the Ki is 15 nM. `Cc1ccc(S(=O)(=O)N(CC(C)C)[C@@H](CCCCNC(=O)CNc2ccncc2)C(=O)O)cc1` [Example 112, Nα-Isobutyl-Nα-(4-methylbenzenesulfonyl)-Nε-[N′α-(4-pyridyl)glycyl]-L-lysine]: the inhibition constant Ki is greater than 300 nM.

With `Cc1ccc(S(=O)(=O)N(CC(C)C)[C@H](CO)CCCCNC(=O)[C@H](Cc2c[nH]c3ccccc23)NS(=O)(=O)c2ccccc2)cc1` [Example 128, (2S,2′S) 2-N-Isobutyl-2-N-(4-methylbenzenesuilfonyl)-6-N-(N′α-benzenesulfonyi-S-tryptophanyl)-2,6-diaminohexanol], the Ki came to 0.95 nM. `Cc1ccc(S(=O)(=O)N(CC(C)C)[C@H](CO)CCCCNC(=O)[C@@H](N)Cc2c[nH]c3ccccc23)cc1` [Example 183, (2S,2′S) 2-N-Isobutyl-2-N-(4-methylbenzenesulfonyl)-6-N-(S-tryptophanyl)-2,6-diaminohexanol Trifluoroacetic Acid Salt]: the Ki stood at 4.4 nM. In the case of `Cc1ccc(S(=O)(=O)N(CC(C)C)[C@@H](CCCCNC(=O)CNCCN2CCCCC2)C(=O)O)cc1` [Example 110, Nα-Isobutyl-Nα-(4-methylbenzenesulfonyl)-Nε-[N′α-(piperidinyl-N-ethyl)glycyl]-L-lysine Trifluoroacetic Acid Salt], the Ki was greater than 300 nM. For the compound `Cc1ccc(S(=O)(=O)N(CC(C)C)[C@@H](CCCCNC(=O)CN(C)c2ccccc2)C(=O)O)cc1` [Example 115, Nα-Isobutyl-Nα-(4-methylbenzenesulfonyl)-Nε-(N′α-methyl-N′α-phenylglycyl)-L-lysine], the Ki is 12 nM.
